Laboratory results from the CheMixHub ionic liquid set.

Experiment: xn = mol fraction of the nth substance listed

CCOC(=O)OCC + CCCC[N+]1(C)CCCC1.O=S(=O)([N-]S(=O)(=O)C(F)(F)F)C(F)(F)F
Settings | viscosity [mPa·s]
323.15 K, 100 kPa, x2 = 0 | 0.54

CCCCCC[N+](CC)(CC)CC.O=S(=O)([N-]S(=O)(=O)C(F)(F)F)C(F)(F)F + CC(C)O
100 kPa
Settings | viscosity [mPa·s]
293.15 K, x2 = 0.096 | 160
298.15 K, x2 = 0.2045 | 95.8
298.15 K, x2 = 0.3101 | 68.4
298.15 K, x2 = 0.4987 | 35.9
303.15 K, x2 = 0.3101 | 61.4
308.15 K, x2 = 0.4056 | 35.1
308.15 K, x2 = 0.4987 | 25.5
308.15 K, x2 = 0.5916 | 18
308.15 K, x2 = 0.8015 | 5.65
308.15 K, x2 = 0.9193 | 2.98
313.15 K, x2 = 0.096 | 69.9
313.15 K, x2 = 0.5916 | 16

CCCC[N+]1(C)CCCC1.F[P-](F)(F)(F)(F)F + CCCC[n+]1cccc(C)c1.F[P-](F)(F)(F)(F)F
101.3 kPa
Settings | viscosity [mPa·s]
308.15 K, x2 = 0.4 | 535
313.15 K, x2 = 0.4 | 390
318.15 K, x2 = 0.4 | 290
318.15 K, x2 = 0.5 | 262
328.15 K, x2 = 0.4 | 170
328.15 K, x2 = 0.7 | 123
328.15 K, x2 = 0.9 | 102
333.15 K, x2 = 0.6 | 108
338.15 K, x2 = 0.5 | 96
343.15 K, x2 = 0.2 | 110
343.15 K, x2 = 0.4 | 86
343.15 K, x2 = 0.6 | 70
348.15 K, x2 = 0.6 | 57
353.15 K, x2 = 0.4 | 58
358.15 K, x2 = 0.2 | 61
358.15 K, x2 = 0.4 | 48
363.15 K, x2 = 0.5 | 37
363.15 K, x2 = 0.6 | 34

CCCC[n+]1ccn(C)c1.O=S(=O)([N-]S(=O)(=O)C(F)(F)F)C(F)(F)F + O=C1CCCO1
100 kPa, x2 = 0
Settings | electrical conductivity [S/m] | viscosity [mPa·s]
298.15 K | 0.4 | 50
303.15 K | 0.472 | 41.24

Nc1ncnc2[nH]cnc12 + CC(=O)[O-].CC[n+]1ccn(C)c1
Settings | viscosity [mPa·s]
298.15 K, 100 kPa, x1 = 0.2012 | 960

CCCC[n+]1ccn(C)c1.O=S(=O)([N-]S(=O)(=O)C(F)(F)F)C(F)(F)F + CCCCOC(C)=O
298.15 K, 100 kPa, x2 = 0
Settings | electrical conductivity [S/m] | viscosity [mPa·s]
– | 0.39 | 50.2

CCCC[n+]1ccn(C)c1.O=S(=O)([N-]S(=O)(=O)C(F)(F)F)C(F)(F)F + OCC(F)(F)F
Settings | viscosity [mPa·s]
283.15 K, 101 kPa, x2 = 0 | 107

CCOC(C)=O + CCO + CCCC[n+]1ccn(C)c1.O=S(=O)([N-]S(=O)(=O)C(F)(F)F)C(F)(F)F
298.15 K, 101 kPa
Settings | viscosity [mPa·s]
x2 = 0.0086, x1 = 0.9023 | 0.967
x2 = 0.0173, x1 = 0.804 | 1.818
x2 = 0.0216, x1 = 0.8938 | 0.982
x2 = 0.026, x1 = 0.7051 | 3.29
x2 = 0.0299, x1 = 0.9014 | 0.806
x2 = 0.035, x1 = 0.6029 | 5.36
x2 = 0.0405, x1 = 0.8009 | 1.644
x2 = 0.0422, x1 = 0.521 | 7.65
x2 = 0.045, x1 = 0.8887 | 0.803
x2 = 0.0534, x1 = 0.3936 | 12.87
x2 = 0.0549, x1 = 0.8911 | 0.714
x2 = 0.0571, x1 = 0.9051 | 0.658
x2 = 0.0615, x1 = 0.7971 | 1.44
x2 = 0.0622, x1 = 0.2942 | 17.63
x2 = 0.0632, x1 = 0.6895 | 2.89
x2 = 0.0688, x1 = 0.2189 | 22.5
x2 = 0.0754, x1 = 0.1444 | 28.1
x2 = 0.0777, x1 = 0.6181 | 4.09
x2 = 0.0778, x1 = 0.1168 | 30.1
x2 = 0.08, x1 = 0.8998 | 0.526
x2 = 0.0815, x1 = 0.0753 | 34.1
x2 = 0.0882, x1 = 0.7818 | 1.308
x2 = 0.0925, x1 = 0.6947 | 2.35
x2 = 0.0953, x1 = 0.8644 | 0.656
x2 = 0.0984, x1 = 0.5164 | 6.16
x2 = 0.0997, x1 = 0.8023 | 1.05
x2 = 0.1177, x1 = 0.6116 | 3.32
x2 = 0.1191, x1 = 0.802 | 0.89
x2 = 0.1234, x1 = 0.3937 | 9.59
x2 = 0.125, x1 = 0.6908 | 1.976
x2 = 0.1404, x1 = 0.3101 | 13.03
x2 = 0.1414, x1 = 0.7989 | 0.789
x2 = 0.1455, x1 = 0.5201 | 4.81
x2 = 0.1477, x1 = 0.707 | 1.521
x2 = 0.1591, x1 = 0.8229 | 0.523
x2 = 0.1604, x1 = 0.6032 | 2.8
x2 = 0.1639, x1 = 0.1949 | 18.29
x2 = 0.1658, x1 = 0.7923 | 0.681
x2 = 0.1735, x1 = 0.1475 | 21.3
x2 = 0.183, x1 = 0.6956 | 1.289
x2 = 0.1841, x1 = 0.0957 | 24.4
x2 = 0.1843, x1 = 0.392 | 7.6
x2 = 0.1948, x1 = 0.043 | 28.1
x2 = 0.1978, x1 = 0.5106 | 3.97
x2 = 0.1995, x1 = 0.6042 | 2.19
x2 = 0.2059, x1 = 0.7708 | 0.557
x2 = 0.213, x1 = 0.2974 | 10.46
x2 = 0.2132, x1 = 0.6967 | 1.026
x2 = 0.2314, x1 = 0.6152 | 1.684
x2 = 0.2434, x1 = 0.1969 | 14.03
x2 = 0.2448, x1 = 0.6933 | 0.829
x2 = 0.2449, x1 = 0.394 | 5.82
x2 = 0.247, x1 = 0.51 | 3.05
x2 = 0.2609, x1 = 0.1391 | 16.65
x2 = 0.2729, x1 = 0.0996 | 18.5
x2 = 0.2797, x1 = 0.6021 | 1.324
x2 = 0.2857, x1 = 0.2933 | 8.02
x2 = 0.2868, x1 = 0.0538 | 21
x2 = 0.2924, x1 = 0.6745 | 0.658
x2 = 0.2972, x1 = 0.5057 | 2.33
x2 = 0.3062, x1 = 0.3928 | 4.4
x2 = 0.3201, x1 = 0.5989 | 1.006
x2 = 0.3236, x1 = 0.1993 | 10.53
x2 = 0.3448, x1 = 0.147 | 12.41
x2 = 0.3553, x1 = 0.4946 | 1.727
x2 = 0.356, x1 = 0.294 | 5.97
x2 = 0.3662, x1 = 0.094 | 14.33
x2 = 0.3681, x1 = 0.3878 | 3.28
x2 = 0.3736, x1 = 0.5842 | 0.736
x2 = 0.3833, x1 = 0.0516 | 16.14
x2 = 0.3974, x1 = 0.502 | 1.235
x2 = 0.4042, x1 = 0.1983 | 7.96
x2 = 0.4237, x1 = 0.3973 | 2.32
x2 = 0.4281, x1 = 0.288 | 4.46
x2 = 0.4291, x1 = 0.149 | 9.07
x2 = 0.4547, x1 = 0.0982 | 10.36
x2 = 0.4684, x1 = 0.4786 | 0.869
x2 = 0.4784, x1 = 0.0511 | 11.87
x2 = 0.4799, x1 = 0.3986 | 1.585
x2 = 0.4832, x1 = 0.1963 | 5.71
x2 = 0.508, x1 = 0.155 | 6.45
x2 = 0.5162, x1 = 0.2658 | 3.24
x2 = 0.5407, x1 = 0.1007 | 7.42
x2 = 0.5473, x1 = 0.3908 | 1.023
x2 = 0.5621, x1 = 0.2957 | 2.03
x2 = 0.5657, x1 = 0.1954 | 3.92
x2 = 0.574, x1 = 0.0452 | 8.7
x2 = 0.598, x1 = 0.1495 | 4.39
x2 = 0.6293, x1 = 0.2115 | 2.49
x2 = 0.6333, x1 = 0.0992 | 5.1
x2 = 0.6413, x1 = 0.2861 | 1.252
x2 = 0.6634, x1 = 0.0564 | 5.74
x2 = 0.6743, x1 = 0.1551 | 2.84
x2 = 0.7038, x1 = 0.1181 | 3.11
x2 = 0.7282, x1 = 0.1894 | 1.533
x2 = 0.7476, x1 = 0.0632 | 3.67
x2 = 0.7565, x1 = 0.1579 | 1.636
x2 = 0.8052, x1 = 0.1037 | 1.848
x2 = 0.8459, x1 = 0.0584 | 2.09

CC[n+]1ccn(C)c1.O=S(=O)([O-])O + O=C([O-])CC(O)(CC(=O)[O-])C(=O)[O-].[Li+].[Li+].[Li+] + O
viscosity [mPa·s], 101 kPa
Settings | 293.15 K | 298.15 K | 303.15 K | 308.15 K | 313.15 K
x2 = 0, x1 = 0.0006645 | 1.023 | 0.93 | 0.823 | 0.75 | 0.674
x2 = 0, x1 = 0.0007293 | 1.036 | 0.943 | 0.825 | 0.749 | 0.689
x2 = 0, x1 = 0.0009254 | 1.064 | 0.943 | 0.844 | 0.763 | 0.683
